Measurements as given in PubChem BioAssay (NCI).
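How tested: cells in 96-well plates exposed to compound for 48 hours at five concentrations. The concentration for full growth arrest is given as TGI.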

Legend:
Test in all cases: NCI tumour cell line growth inhibition, 48 h
[1] = system: U251 CNS
[2] = system: HCT-15 colon
[3] = system: MOLT-4 leukemia
[4] = system: PC-3 prostate
[5] = system: UO-31 renal
[6] = system: OVCAR-4 ovarian
[7] = system: OVCAR-3 ovarian
[8] = system: M14 melanoma
[9] = system: SK-MEL-28 melanoma
[10] = system: A549 NSCLC

Question: Which TGI [1] does the source give for `COc1cccc(C23CCCC(C2)N(C)CC3OC(=O)c2ccccc2)c1OC` (stereo not drawn) here?
Answer: > 100 µM

Question: And the TGI [2]?
Answer: 72.7 µM

Question: What about the TGI [3] of the same compound?
Answer: 60.3 µM

Question: What about the TGI [4] of the same compound?
Answer: 81.8 µM

Question: What about the TGI [5] of the same compound?
Answer: > 100 µM

Question: What about the TGI [6] of the same compound?
Answer: > 100 µM

Question: What about the TGI [7] of the same compound?
Answer: > 100 µM

Question: What about the TGI [8] of the same compound?
Answer: 29.6 µM

Question: And the TGI [9]?
Answer: 87.8 µM

Question: What about the TGI [10] of the same compound?
Answer: > 100 µM

Question: How did the TGI [1] turn out when `C[C@]12CC[C@H]3[C@@H](CCC4=C(Br)C(=O)C=C[C@@]43O)[C@@H]1CCC2=O` was run?
Answer: > 100 µM

Question: What about the TGI [2] of the same compound?
Answer: 52.7 µM

Question: What about the TGI [3] of the same compound?
Answer: > 100 µM

Question: What about the TGI [4] of the same compound?
Answer: > 100 µM

Question: What about the TGI [5] of the same compound?
Answer: > 100 µM

Question: And the TGI [6]?
Answer: > 100 µM

Question: What about the TGI [7] of the same compound?
Answer: > 100 µM

Question: What about the TGI [8] of the same compound?
Answer: > 100 µM

Question: And the TGI [9]?
Answer: > 100 µM

Question: What about the TGI [10] of the same compound?
Answer: > 100 µM

Question: `Cc1nc2cccc(F)c2c(=O)n1-c1nnc(C(F)(F)F)s1` was tested. Which TGI [1] did it give?
Answer: > 10 µM

Question: And the TGI [2]?
Answer: > 10 µM

Question: And the TGI [3]?
Answer: > 10 µM

Question: What about the TGI [4] of the same compound?
Answer: > 10 µM

Question: And the TGI [5]?
Answer: > 10 µM

Question: And the TGI [6]?
Answer: > 10 µM

Question: What about the TGI [7] of the same compound?
Answer: > 10 µM

Question: And the TGI [8]?
Answer: > 10 µM

Question: What about the TGI [9] of the same compound?
Answer: > 10 µM

Question: What about the TGI [10] of the same compound?
Answer: > 10 µM

Question: What does the source list for `Cc1ccc(/C=C2/NC(=S)SC2=O)cc1`?
Answer: TGI [1]: > 100 µM; TGI [2]: 85.6 µM; TGI [3]: > 100 µM; TGI [4]: > 100 µM; TGI [5]: 93.1 µM; TGI [6]: > 100 µM; TGI [7]: > 100 µM; TGI [8]: > 100 µM; TGI [9]: > 100 µM; TGI [10]: > 100 µM

Question: With `C/C(=N/NC(=S)N1CCN(C(=S)N/N=C(/C)c2ccccn2)CC1)c1ccccn1` as the compound, how does the TGI [1] read?
Answer: > 100 µM

Question: And the TGI [2]?
Answer: > 100 µM

Question: What about the TGI [3] of the same compound?
Answer: > 100 µM

Question: And the TGI [4]?
Answer: > 100 µM

Question: What about the TGI [5] of the same compound?
Answer: > 76.7 µM

Question: What about the TGI [6] of the same compound?
Answer: > 100 µM

Question: And the TGI [7]?
Answer: > 100 µM

Question: And the TGI [8]?
Answer: 38.5 µM

Question: What about the TGI [9] of the same compound?
Answer: > 100 µM

Question: And the TGI [10]?
Answer: > 100 µM

Question: How did the TGI [1] turn out when `O=[N+]([O-])c1ccc2c(c1)n1c(N3CCCC3)[n+]3ccccc3c1c1c3cccc[n+]3c(N3CCCC3)n21` was run?
Answer: > 100 µM

Question: And the TGI [2]?
Answer: > 100 µM

Question: And the TGI [3]?
Answer: > 100 µM

Question: What about the TGI [4] of the same compound?
Answer: > 100 µM

Question: What about the TGI [6] of the same compound?
Answer: > 100 µM

Question: And the TGI [7]?
Answer: > 100 µM

Question: What about the TGI [8] of the same compound?
Answer: > 100 µM

Question: What about the TGI [9] of the same compound?
Answer: > 100 µM

Question: What about the TGI [10] of the same compound?
Answer: > 100 µM

Question: How did the TGI [1] turn out when `O=C(O)CCSC1=NCCN1` was run?
Answer: > 100 µM

Question: And the TGI [2]?
Answer: > 100 µM

Question: What about the TGI [4] of the same compound?
Answer: > 100 µM

Question: And the TGI [5]?
Answer: > 100 µM

Question: What about the TGI [6] of the same compound?
Answer: > 100 µM

Question: And the TGI [7]?
Answer: > 100 µM

Question: And the TGI [8]?
Answer: > 100 µM

Question: What about the TGI [9] of the same compound?
Answer: > 100 µM

Question: And the TGI [10]?
Answer: > 100 µM

Question: What does the source list for `CC1=NN2C(=N)/C(=C/c3ccccc3)C(=O)N=C2S1`?
Answer: TGI [1]: > 100 µM; TGI [2]: > 100 µM; TGI [3]: > 100 µM; TGI [4]: > 100 µM; TGI [5]: > 100 µM; TGI [6]: > 100 µM; TGI [7]: > 100 µM; TGI [8]: > 100 µM; TGI [9]: > 100 µM; TGI [10]: > 100 µM

Question: For `CC(C)(CN1CCCCC1)C(/C=C/c1ccccc1)=N\NC(=O)N/N=C(/C=C/c1ccccc1)C(C)(C)CN1CCCCC1`, which TGI [1] is on record?
Answer: 3 µM

Question: What about the TGI [2] of the same compound?
Answer: 2.72 µM

Question: What about the TGI [3] of the same compound?
Answer: 4.02 µM

Question: What about the TGI [4] of the same compound?
Answer: 7.7 µM

Question: What about the TGI [5] of the same compound?
Answer: 2.37 µM

Question: And the TGI [6]?
Answer: 14.1 µM

Question: And the TGI [7]?
Answer: 6.82 µM

Question: What about the TGI [8] of the same compound?
Answer: 3.19 µM

Question: What about the TGI [9] of the same compound?
Answer: 3.07 µM

Question: What about the TGI [10] of the same compound?
Answer: 6.12 µM

Question: Which TGI [1] does the source give for `COc1cc2c(cc1O)CCN(C)[C@H]2Cc1ccc(Oc2c(O)c(OC)cc3c2C[C@H]2c4c(c(OC)c(OC)c(OC)c4-3)CCN2C)cc1` here?
Answer: 9.05 µM

Question: And the TGI [2]?
Answer: 10.1 µM

Question: What about the TGI [3] of the same compound?
Answer: 11 µM

Question: What about the TGI [4] of the same compound?
Answer: 8.9 µM

Question: What about the TGI [5] of the same compound?
Answer: 9.77 µM

Question: And the TGI [6]?
Answer: 4.38 µM

Question: What about the TGI [7] of the same compound?
Answer: 10.6 µM

Question: What about the TGI [8] of the same compound?
Answer: 10.9 µM

Question: And the TGI [9]?
Answer: 11.7 µM

Question: And the TGI [10]?
Answer: 10 µM
